In patent US20200333324A1, “METHOD OF PREDICTING CLINICAL OUTCOME OF ANTICANCER AGENTS” (MITRA RXDX, INC., priority 2017, published 2020):

How the values were obtained:
Type in all cases: cell-based, human
HNSCC tumor tissue [1] = assay: M-score clinical outcome predictor: tumor microenvironment platform assays (WST-1, LDH, ATP, glucose uptake, Caspase 3/8, Ki67, H&E) input into machine-trained algorithm; set-up: scale not given here
HNSCC tumor tissue [2] = assay: as above; set-up: scale not given here; remark: listed apart in the source
From the text: Utilizing primary and late stage HNSCC patient samples (n=16) we interrogated phenotypic response to both Pembrolizumab (KEYTRUDA) and Nivolumab (OPDIVO), two FDA-approved PD-1 inhibitors, as single agents on the tumor microenvironment platform with tumor tissue from the same patient. To do this, we assayed tumor proliferation (Ki67) and apoptosis (active caspase-3), in addition to using a comprehensive panel of immunological assays to evaluate changes in the immune compartment (CD8, CD45, FOXP3, CXCR4, CD68, PDL1, PD1) and cytokine profile (IL6, IL8, IFN-g and IL12).

Tumor sections [3] = assay: FACS analysis for CD25, CD127 and FOXP3 expression, tumor sections; conditions: for functional Treg cells (CD25, CD127, FOXP3 FACS): platform containing tumor tissue
Method: The effect of treatment with Nivolumab and Pembrolizumab on CD25, CD127, and FOXP3 expression was then evaluated. Tumor sections or PBNCs from the same patient cultured for 3 days in the tumor microenvironment platform were treated with Pembrolizumab, Nivolumab, or IgG control for one day followed by FACS analysis for expression of CD25, CD127, and FOXP3.

CRC tumor tissue = assay: Granzyme B and Perforin secretion assays, CRC tumor sections in tumor microenvironment platform; conditions: 48 hours
Method: FIGS. 10A and 10B show quantification of results for Granzyme B and Perforin secretion assays for CRC tumor tissue cultured in the tumor microenvironment platform treated with Ipilimumab, Nivolumab, Ipilimumab+Nivolumab, FOLFIRI, or IgG control for 24 or 48 hours.
In another experiment, CRC tumor sections from the same patient cultured for 24 or 48 hours in the tumor microenvironment platform with Ipilimumab, Nivolumab, Ipilimumab+Nivolumab, FOLFIRI, or IgG as control were assayed for Granzyme B and Perforin secretion. Results are shown in FIG. 10A for the tumor microenvironment platform with tumor tissue from a predicted responder and FIG. 10B for the tumor microenvironment platform with tumor tissue from a predicted non-responder. After treatment with Nivolumab for 48 hours, there was an increase in Granzyme B secretion in the tumor microenvironment platform with tissue from the predicted responder compared to treatment with Ipilimumab or the control IgG. By contrast, at 48 hours in the tumor microenvironment platform with tissue from the predicted non-responder there was no increase in Granzyme B or Perforin secretion for treatment with Nivolumab.

Tumor sections [4] = assay: FACS of CD3+/CD45+ lymphocytes for PD-1, CEACAM, LAG3, TIM3, OX40, ILDR2, 4-1-BB, GITR, tumor sections
Method: (§1) To further probe the phenotypic modulation mediated by treatment with Nivolumab, tumor sections or PBNCs from the same patient cultured for 3 days (72 hours) in the tumor microenvironment platform were treated with Nivolumab or IgG control for one day, followed by flow cytometry gating for lymphocytes based on their forward and side scatter properties. Lymphocytes were further gated for expression of both CD3 and CD45, and this population of cells was analyzed by FACS for expression of PD-1, CEACAM, LAG3, TIM3, OX40, ILDR2, 4-1-BB, and GITR.

PBNCs = assay: FACS of CD3+/CD45+ lymphocytes for PD-1, CEACAM, LAG3, TIM3, OX40, ILDR2, 4-1-BB, GITR, PBNCs
Method: as §1

HNSCC tumor tissue [5] = assay: H&E staining and IHC for Ki67 and Caspase 3 in tumor microenvironment platform; conditions: patient 2941
Method: The effects of Pembrolizumab and Nivolumab on proliferation in the tumor microenvironment platform were then evaluated. Tumor sections from the same patient cultured for 72 hours in the tumor microenvironment platform (performed in at least biological triplicate) were treated with Pembrolizumab, Nivolumab, or IgG as control. Tissue was subsequently formalin fixed and paraffin embedded, and processed for H&E staining and immuno histochemical staining (IHC) with Ki67 and Caspase 3 at day 3 in culture (T3). Baseline staining was determined at TO.
The effect of Pembrolizumab and Nivolumab on CD8^+ T cell tumor infiltration was then evaluated. Tumor sections from the same patient cultured for 72 hours in the tumor microenvironment platform were treated with Pembrolizumab, Nivolumab, or IgG as control and stained for H&E, Ki67, Caspase 3, and CD8 at day 3 in culture (T3). Baseline staining was determined at TO. […] CD8^+ T cell infiltration was evaluated in the tumor microenvironment platform with tumor tissue from the same patient, and comparisons for control vs Nivo, control vs Pembro, Nivo vs Pembro, and control vs Nivo vs Pembro for multiple patients are shown in FIG. 6 (each line represents results from the tumor microenvironment platform cultured with tumor tissue from a single individual).

[6] = platform containing tumor tissue, vs IgG control

Pembrolizumab
M-score (HNSCC tumor tissue [1]; Patient ID 2916): 8
M-score (HNSCC tumor tissue [1]; Patient ID 2926): 28
M-score (HNSCC tumor tissue [1]; Patient ID 2939): 4
M-score (HNSCC tumor tissue [1]; Patient ID 2942): 18
M-score (HNSCC tumor tissue [1]; Patient ID 2950): 13
M-score (HNSCC tumor tissue [1]; Patient ID 2963): 9
M-score (HNSCC tumor tissue [1]; Patient ID 2979): 27
M-score (HNSCC tumor tissue [1]; Patient ID 2980): 19
M-score (HNSCC tumor tissue [2]; Patient ID 2918): 13
M-score (HNSCC tumor tissue [2]; Patient ID 2928): 16
M-score (HNSCC tumor tissue [2]; Patient ID 2941): 38
M-score (HNSCC tumor tissue [2]; Patient ID 2948): 4
M-score (HNSCC tumor tissue [2]; Patient ID 2949): 6
M-score (HNSCC tumor tissue [2]; Patient ID 2956): 6
M-score (HNSCC tumor tissue [2]; Patient ID 2978): 22
M-score (HNSCC tumor tissue [2]; Patient ID 2981): 7
CD25^+/FOXP3^− Tumor (% total cells) (Tumor sections [3]; Non-Responder, control 6.52): 5.03 % total cells
CD25^+/CD127^+ Tumor (% total cells) (Tumor sections [3]; Non-Responder, control 19.6): 17.8 % total cells
CD25^−/CD127^− Tumor (% total cells) (Tumor sections [3]; Non-Responder, control 22.1): 24.9 % total cells
CD25^−/FOXP3^− Tumor (% total cells) (Tumor sections [3]; Non-Responder, control 23.6): 10.7 % total cells
CD25^+/CD127^− Tumor (% total cells) (Tumor sections [3]; Non-Responder, control 25.4): 24.3 % total cells
CD25^−/CD127^+ Tumor (% total cells) (Tumor sections [3]; Non-Responder, control 33.0): 32.9 % total cells
CD25^+/FOXP3^+ Tumor (% total cells) (Tumor sections [3]; Non-Responder, control 34.4): 35.8 % total cells
CD25^− FOXP3^+ Tumor (% total cells) (Tumor sections [3]; Non-Responder, control 35.5): 48.4 % total cells
CD25^−/CD127^− Tumor (% total cells) (Tumor sections [3]; Responder, control 12.2): 18.4 % total cells
CD25^− FOXP3^+ Tumor (% total cells) (Tumor sections [3]; Responder, control 18.9): 42.5 % total cells
CD25^−/FOXP3^− Tumor (% total cells) (Tumor sections [3]; Responder, control 20.3): 6.67 % total cells
CD25^+/CD127^− Tumor (% total cells) (Tumor sections [3]; Responder, control 23.0): 17.7 % total cells
CD25^−/CD127^+ Tumor (% total cells) (Tumor sections [3]; Responder, control 24.3): 31.2 % total cells
CD25^+/FOXP3^− Tumor (% total cells) (Tumor sections [3]; Responder, control 25.7): 5.83 % total cells
CD25^+/FOXP3^+ Tumor (% total cells) (Tumor sections [3]; Responder, control 35.1): 45.0 % total cells
CD25^+/CD127^+ Tumor (% total cells) (Tumor sections [3]; Responder, control 40.5): 32.6 % total cells
functional Treg cells (CD25, CD127, FOXP3 FACS) (Tumor sections [3]): patient sample-dependent functional Treg cell depression

Nivolumab
Granzyme B secretion (CRC tumor tissue; predicted non-responder): no increase
Perforin secretion (CRC tumor tissue; predicted non-responder): no increase
Granzyme B secretion (CRC tumor tissue; predicted responder, compared to Ipilimumab or control IgG): increase
OX40 Tumor (% total cells) (Tumor sections [4]; CD3+/CD45+ lymphocytes, treated one day, control 1.70): 0 % total cells
CEACAM Tumor (% total cells) (Tumor sections [4]; CD3+/CD45+ lymphocytes, treated one day, control 2.04): 3.69 % total cells
LAG3 Tumor (% total cells) (Tumor sections [4]; CD3+/CD45+ lymphocytes, treated one day, control 2.22): 0.52 % total cells
GITR Tumor (% total cells) (Tumor sections [4]; CD3+/CD45+ lymphocytes, treated one day, control 2.60): 13.0 % total cells
4-1-BB Tumor (% total cells) (Tumor sections [4]; CD3+/CD45+ lymphocytes, treated one day, control 4.69): 7.56 % total cells
TIM3 Tumor (% total cells) (Tumor sections [4]; CD3+/CD45+ lymphocytes, treated one day, control 17.8): 19.9 % total cells
PD-1 Tumor (% total cells) (Tumor sections [4]; CD3+/CD45+ lymphocytes, treated one day, control 19.4): 20.5 % total cells
ILDR2 Tumor (% total cells) (Tumor sections [4]; CD3+/CD45+ lymphocytes, treated one day, control 24.4): 17.1 % total cells
number of GITR^+/CD3^+/CD45^+ lymphocytes (Tumor sections [4]; [6]): increase
number of ILDR2^+/CD3^+/CD45^+ lymphocytes (Tumor sections [4]; [6]): decrease
M-score (HNSCC tumor tissue [1]; Patient ID 2916): 13
M-score (HNSCC tumor tissue [1]; Patient ID 2926): 31
M-score (HNSCC tumor tissue [1]; Patient ID 2939): 5
M-score (HNSCC tumor tissue [1]; Patient ID 2942): 28
M-score (HNSCC tumor tissue [1]; Patient ID 2950): 16
M-score (HNSCC tumor tissue [1]; Patient ID 2963): 5
M-score (HNSCC tumor tissue [1]; Patient ID 2979): 9
M-score (HNSCC tumor tissue [1]; Patient ID 2980): 12
CEACAM PBMCs (% total cells) (PBNCs; CD3+/CD45+ lymphocytes, treated one day, control 0.12): 2.74 % total cells
LAG3 PBMCs (% total cells) (PBNCs; CD3+/CD45+ lymphocytes, treated one day, control 0.14): 0.031 % total cells
OX40 PBMCs (% total cells) (PBNCs; CD3+/CD45+ lymphocytes, treated one day, control 0.25): 0 % total cells
4-1-BB PBMCs (% total cells) (PBNCs; CD3+/CD45+ lymphocytes, treated one day, control 0.27): 0.38 % total cells
GITR PBMCs (% total cells) (PBNCs; CD3+/CD45+ lymphocytes, treated one day, control 0.30): 0.50 % total cells
ILDR2 PBMCs (% total cells) (PBNCs; CD3+/CD45+ lymphocytes, treated one day, control 1.96): 2.67 % total cells
PD-1 PBMCs (% total cells) (PBNCs; CD3+/CD45+ lymphocytes, treated one day, control 2.94): 0.31 % total cells
TIM3 PBMCs (% total cells) (PBNCs; CD3+/CD45+ lymphocytes, treated one day, control 7.91): 13.9 % total cells
ILDR2^+/CD3^+/CD45^+ and GITR^+/CD3^+/CD45^+ cell populations (PBNCs; platform containing only PBNCs, vs IgG control): No significant change
M-score (HNSCC tumor tissue [2]; Patient ID 2918): 27
M-score (HNSCC tumor tissue [2]; Patient ID 2928): 19
M-score (HNSCC tumor tissue [2]; Patient ID 2941): 41
M-score (HNSCC tumor tissue [2]; Patient ID 2948): 12
M-score (HNSCC tumor tissue [2]; Patient ID 2949): 11
M-score (HNSCC tumor tissue [2]; Patient ID 2956): 10
M-score (HNSCC tumor tissue [2]; Patient ID 2978): 33
M-score (HNSCC tumor tissue [2]; Patient ID 2981): 6
CD25^+/FOXP3^− Tumor (% total cells) (Tumor sections [3]; Non-Responder, control 6.52): 6.45 % total cells
CD25^+/CD127^+ Tumor (% total cells) (Tumor sections [3]; Non-Responder, control 19.6): 16.1 % total cells
CD25^−/CD127^− Tumor (% total cells) (Tumor sections [3]; Non-Responder, control 22.1): 21.7 % total cells
CD25^−/FOXP3^− Tumor (% total cells) (Tumor sections [3]; Non-Responder, control 23.6): 17.5 % total cells
CD25^+/CD127^− Tumor (% total cells) (Tumor sections [3]; Non-Responder, control 25.4): 22.1 % total cells
CD25^−/CD127^+ Tumor (% total cells) (Tumor sections [3]; Non-Responder, control 33.0): 40.1 % total cells
CD25^+/FOXP3^+ Tumor (% total cells) (Tumor sections [3]; Non-Responder, control 34.4): 29.5 % total cells
CD25^− FOXP3^+ Tumor (% total cells) (Tumor sections [3]; Non-Responder, control 35.5): 46.5 % total cells
CD25^−/CD127^− Tumor (% total cells) (Tumor sections [3]; Responder, control 12.2): 15.6 % total cells
CD25^− FOXP3^+ Tumor (% total cells) (Tumor sections [3]; Responder, control 18.9): 45.7 % total cells
CD25^−/FOXP3^− Tumor (% total cells) (Tumor sections [3]; Responder, control 20.3): 4.62 % total cells
CD25^+/CD127^− Tumor (% total cells) (Tumor sections [3]; Responder, control 23.0): 25.4 % total cells
CD25^−/CD127^+ Tumor (% total cells) (Tumor sections [3]; Responder, control 24.3): 31.8 % total cells
CD25^+/FOXP3^− Tumor (% total cells) (Tumor sections [3]; Responder, control 25.7): 5.20 % total cells
CD25^+/FOXP3^+ Tumor (% total cells) (Tumor sections [3]; Responder, control 35.1): 44.5 % total cells
CD25^+/CD127^+ Tumor (% total cells) (Tumor sections [3]; Responder, control 40.5): 27.2 % total cells
functional Treg cells (CD25, CD127, FOXP3 FACS) (Tumor sections [3]): patient sample-dependent functional Treg cell depression
proliferation (Ki67 IHC) (HNSCC tumor tissue [5]; 72 hours, vs IgG control): diminished proliferation
Caspase 3 activity (IHC) (HNSCC tumor tissue [5]; T3, associated with increased CD8^+ T cell infiltration): increased Caspase 3 activity
